We go through 16 compounds from PubChem BioAssay (NCI).

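Step 1: Grow cells in 96-well plates. Step 2: Expose to compound for 48 hours at 5 concentrations. Step 3: Interpolate endpoints linearly; if unreached, use highest concentration. GI50 = concentration required for 50% inhibition of growth. At the TGI there is no net growth.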

Among the test systems are U251 CNS; LOX IMVI melanoma; OVCAR-4 ovarian; UACC-257 melanoma; UACC-62 melanoma; NCI-H522 lung; OVCAR-5 ovarian; PC-3 prostate; T-47D breast.
Common to all, as to experiment: inhibition of tumour cell growth, NCI panel, 48 h

Take `O=C(O)[C@@H]1CCCC[C@@H]1C(=O)N(C1CCCCC1)C1CCCCC1`: the TGI in the experiment with U251 CNS, with LOX IMVI melanoma, with OVCAR-4 ovarian, in the experiment with UACC-257 melanoma, with UACC-62 melanoma and in the experiment on NCI-H522 lung was more than 100 µM each time. This compound returned a TGI in the experiment on OVCAR-5 ovarian of more than 100 µM.
On to `COc1ccccc1/C=C\C(=O)c1ccccc1`, for which the GI50 with U251 CNS is 4.25 µM; in the experiment with LOX IMVI melanoma, 2.93 µM; with OVCAR-4 ovarian it was 4.31 µM; in the experiment with UACC-257 melanoma, 12.9 µM; with UACC-62 melanoma, 5.57 µM; in the experiment with PC-3 prostate, 5.85 µM. Also, the GI50 is 2.39 µM in the experiment with NCI-H522 lung, 17.7 µM in the experiment with OVCAR-5 ovarian and 5.44 µM with T-47D breast. Also, the TGI came to 16.8 µM with U251 CNS; 8.79 µM with LOX IMVI melanoma; 17.1 µM with OVCAR-4 ovarian; 26.2 µM in the experiment with UACC-257 melanoma; 18.7 µM in the experiment on UACC-62 melanoma; 23 µM with PC-3 prostate. Moreover, the TGI in the experiment with NCI-H522 lung stood at 7 µM; in the experiment with OVCAR-5 ovarian, 32.5 µM; in the experiment with T-47D breast, 20 µM.
In the case of `COc1ccc(CC2=NCCc3cc(OC)c(OC)cc32)cc1Br`, the TGI in the experiment on U251 CNS is more than 100 µM; in the experiment on LOX IMVI melanoma, 30.3 µM; in the experiment on OVCAR-4 ovarian, more than 100 µM; in the experiment with UACC-257 melanoma it was 82.6 µM; with UACC-62 melanoma, 36.6 µM; in the experiment on NCI-H522 lung, 86.6 µM. Also, in the experiment with OVCAR-5 ovarian, the TGI amounted to 8.32 µM.
With `COc1nc2c(c(O)c(C)c(=O)n2OC2OC(COC(C)=O)C(OC(C)=O)C(OC(C)=O)C2OC(C)=O)c(=O)n1C` (stereo not given), the TGI in the experiment on U251 CNS, in the experiment on LOX IMVI melanoma, in the experiment on OVCAR-4 ovarian, in the experiment with UACC-62 melanoma, with NCI-H522 lung and in the experiment with OVCAR-5 ovarian was more than 100 µM in each case.
With `C[C@@]12CCCC(=O)N1[C@@H](CO)C(c1ccccc1)O2` (stereo not given in full), the TGI in the experiment with U251 CNS, in the experiment on LOX IMVI melanoma, in the experiment on OVCAR-4 ovarian, in the experiment with UACC-257 melanoma, with UACC-62 melanoma and in the experiment with OVCAR-5 ovarian was more than 100 µM each time.
For `CCOC(=O)C[C@@]12CCCNC1(C)CCc1ccccc12` (stereo not given in full), the TGI with U251 CNS, in the experiment with LOX IMVI melanoma, with UACC-257 melanoma and in the experiment with UACC-62 melanoma was more than 100 µM each time.
Take `CC1=C(C(=O)CC(=O)C(=O)NC2C3CC4CC(C3)CC2C4)Sc2ccccc2N1` (stereo not given): the TGI in the experiment on U251 CNS, with LOX IMVI melanoma, with OVCAR-4 ovarian, in the experiment with UACC-257 melanoma, with UACC-62 melanoma and in the experiment with NCI-H522 lung was more than 100 µM throughout. The compound also gave a TGI with OVCAR-5 ovarian of more than 100 µM.
Turning to `COc1ccc(C2NCCc3c2[nH]c2ccccc32)cc1` (stereo not given), the TGI in the experiment with U251 CNS, in the experiment on LOX IMVI melanoma, in the experiment with UACC-257 melanoma, with UACC-62 melanoma, in the experiment with NCI-H522 lung and in the experiment with OVCAR-5 ovarian was more than 100 µM each time.
Regarding `CC1(C)CC(=O)c2c(oc3cc(O)c(O)cc23)C1`, the TGI in the experiment on U251 CNS is more than 100 µM; with LOX IMVI melanoma, 31.4 µM; in the experiment on OVCAR-4 ovarian it was 43.4 µM; with UACC-257 melanoma it was more than 100 µM; in the experiment with UACC-62 melanoma it was 32 µM; with NCI-H522 lung, 24.3 µM. The TGI with OVCAR-5 ovarian is 56.9 µM.
Consider `COc1ccc2[nH]c3c(=O)[nH]ncc3c2c1`, for which the TGI in the experiment with U251 CNS, in the experiment with LOX IMVI melanoma, in the experiment with OVCAR-4 ovarian, with UACC-257 melanoma, in the experiment with UACC-62 melanoma and in the experiment on NCI-H522 lung was more than 100 µM in each case. For the same compound, the TGI with OVCAR-5 ovarian was more than 100 µM.
As to `CC(=O)OCCC(O[Si](c1ccccc1)(c1ccccc1)C(C)(C)C)C(C)(C)O` (stereo not given), the TGI was more than 100 µM in the experiment with U251 CNS; 57.8 µM in the experiment on LOX IMVI melanoma; more than 100 µM in the experiment with OVCAR-4 ovarian; more than 100 µM with UACC-257 melanoma; more than 100 µM in the experiment with UACC-62 melanoma; 46.8 µM with NCI-H522 lung. The same compound displayed a TGI in the experiment on OVCAR-5 ovarian of more than 100 µM.
As to `CC[P+]1(CC)CCCC1`, the TGI with U251 CNS, in the experiment on LOX IMVI melanoma, in the experiment with OVCAR-4 ovarian, in the experiment with UACC-257 melanoma, with UACC-62 melanoma and with OVCAR-5 ovarian was more than 100 µM in each case.
For the compound `NS(=O)(=O)c1ccc(NC(=O)c2cccn3c(=O)c4ccccc4nc23)cc1`, the TGI in the experiment with U251 CNS, in the experiment on LOX IMVI melanoma, in the experiment with OVCAR-4 ovarian, with UACC-257 melanoma, with UACC-62 melanoma and in the experiment on NCI-H522 lung was more than 100 µM throughout.
As for `C/C(=N/NC(=O)CC(=O)N(C(=O)c1ccccc1Cl)c1ccc(C)cc1)c1cc2ccccc2oc1=O`, the TGI with U251 CNS, with LOX IMVI melanoma, with OVCAR-4 ovarian, in the experiment with UACC-257 melanoma, in the experiment with UACC-62 melanoma and with NCI-H522 lung was more than 100 µM throughout. This compound also came in with a TGI with OVCAR-5 ovarian of more than 100 µM.
With `CC(=O)[CH-]C(=O)c1ccccc1.CC(=O)[CH-]C(=O)c1ccccc1.[CH2-]CCC.[CH2-]CCC.[Sn+4]`, the GI50 with U251 CNS is 1.32 µM; in the experiment on LOX IMVI melanoma, 1.06 µM; with UACC-257 melanoma it was 0.343 µM; in the experiment on UACC-62 melanoma it was 0.754 µM; in the experiment with NCI-H522 lung it was 0.157 µM; in the experiment with OVCAR-5 ovarian, 2.07 µM. Also, the TGI amounted to 2.65 µM in the experiment with U251 CNS; 2.47 µM in the experiment on LOX IMVI melanoma; 1.69 µM with UACC-257 melanoma; 2.17 µM in the experiment with UACC-62 melanoma; 0.327 µM with NCI-H522 lung; 3.59 µM in the experiment on OVCAR-5 ovarian.
In the case of `Cc1nnc(N=Nc2c(O)[nH]c3ccccc23)n1N`, the TGI with U251 CNS, in the experiment on LOX IMVI melanoma, with OVCAR-4 ovarian, in the experiment on UACC-257 melanoma, in the experiment on UACC-62 melanoma and with NCI-H522 lung was more than 100 µM throughout. This compound also came in with a TGI in the experiment with OVCAR-5 ovarian of more than 100 µM.
